Results published in ChEMBL document CHEMBL3872220, “Amphiphilic xanthones as a potent chemical entity of anti-mycobacterial agents with membrane-targeting properties” (Eur J Med Chem, 2016).
In brackets after ≈: the same amount, converted by molar mass.

Legend:
[1] = Hemolytic activity against New Zealand white rabbit RBC assessed as hemoglobin release measured after 1 hr; type: ADME, cell-based, Oryctolagus cuniculus, Erythrocyte; settings: red blood cells
[2] = system: Mycolicibacterium smegmatis; assay: Antimycobacterial activity against Mycobacterium smegmatis MC2 155 after 24 hrs by broth dilution assay; type: functional; settings: str. MC2 155, 24 h
[3] = system: Mycolicibacterium smegmatis; assay: Bactericidal activity against Mycobacterium smegmatis MC2 155 assessed as log reduction in bacterial colonies up to 8 times MIC measured after 24 hrs by time-kill assay; type: functional, str. MC2 155
[4] = system: Mycolicibacterium smegmatis; assay: Antimycobacterial activity against Mycobacterium smegmatis MC2 155 assessed as inhibition of respiratory ATP synthesis by measuring ATP level at 4 times MIC measured after 1 hr by luciferase reporter gene assay (reference value: 90.6%); type: functional, str. MC2 155; set-up: scale not given: the % may be the effect or the level left
[5] = system: Mycolicibacterium smegmatis; assay: Antimycobacterial activity against Mycobacterium smegmatis MC2 155 assessed as inhibition of respiratory ATP synthesis by measuring ATP level at 2 times MIC measured after 3 hrs by luciferase reporter gene assay (reference value: 158.3%); type: functional, str. MC2 155; set-up: scale not given: the % may be the effect or the level left
[6] = system: Mycolicibacterium smegmatis; assay: Antimycobacterial activity against Mycobacterium smegmatis MC2 155 assessed as inhibition of respiratory ATP synthesis by measuring ATP level at 4 times MIC measured after 6 hrs by luciferase reporter gene assay (reference value: 152%); type: functional, str. MC2 155; set-up: scale not given: the % may be the effect or the level left
[7] = system: Mycolicibacterium smegmatis; assay: Antimycobacterial activity against Mycobacterium smegmatis MC2 155 assessed as inhibition of respiratory ATP synthesis by measuring ATP level at 4 times MIC measured after 6 hrs by luciferase reporter gene assay (reference value: 212.7%); type: functional, str. MC2 155; set-up: scale not given: the % may be the effect or the level left
Staphylococcus aureus [8] = assay: Antibacterial activity against methicillin-resistant Staphylococcus aureus isolate DM21455; type: functional
Staphylococcus aureus [9] = assay: Antibacterial activity against Staphylococcus aureus isolate DM4001; type: functional
[10] = Cytotoxicity against human corneal fibroblasts assessed as reduction in ATP level measured after 4 hrs by Celltiter-Glo luminescent assay; type: toxicity, Corneal fibroblast
[11] = Cytotoxicity against human corneal fibroblasts assessed as increase in LDH level measured after 4 hrs by Cytotox-one […] assay; type: toxicity, Corneal fibroblast
[12] = Drug metabolism in rat liver microsomes at 1 uM preincubated for 5 mins followed by NADPH addition measured up to 30 mins by LC-MS/MS method; type: ADME; settings: read-out: Drug metabolism
[13] = Half life in rat liver microsomes at 1 uM preincubated for 5 mins followed by NADPH addition measured by LC-MS/MS method; type: ADME
CYP3A4 = CYP3A4 (Homo sapiens, UniProt P08684); assay: Inhibition of CYP3A4 in human liver microsomes at 10 uM using midazolam as substrate preincubated for 5 min followed by NADPH addition measured after 10 mins by LC-MS/MS method relative to control; type: ADME; settings: probe midazolam
CYP2D6 = CYP2D6 (Homo sapiens, UniProt P10635); assay: Inhibition of CYP2D6 in human liver microsomes at 10 uM using bufuralol as substrate preincubated for 5 min followed by NADPH addition measured after 10 mins by LC-MS/MS method relative to control; type: ADME; settings: probe bufuralol
CYP2C19 = CYP2C19 (Homo sapiens, UniProt P33261); assay: Inhibition of CYP2C19 in human liver microsomes at 10 uM using omeprazole as substrate preincubated for 5 min followed by NADPH addition measured after 10 mins by LC-MS/MS method relative to control; type: ADME; settings: probe omeprazole
[14] = Oral bioavailability in Sprague-Dawley rat; type: ADME, organism-based; settings: in vivo

Sequence of CYP2C19 (P33261 whole entry): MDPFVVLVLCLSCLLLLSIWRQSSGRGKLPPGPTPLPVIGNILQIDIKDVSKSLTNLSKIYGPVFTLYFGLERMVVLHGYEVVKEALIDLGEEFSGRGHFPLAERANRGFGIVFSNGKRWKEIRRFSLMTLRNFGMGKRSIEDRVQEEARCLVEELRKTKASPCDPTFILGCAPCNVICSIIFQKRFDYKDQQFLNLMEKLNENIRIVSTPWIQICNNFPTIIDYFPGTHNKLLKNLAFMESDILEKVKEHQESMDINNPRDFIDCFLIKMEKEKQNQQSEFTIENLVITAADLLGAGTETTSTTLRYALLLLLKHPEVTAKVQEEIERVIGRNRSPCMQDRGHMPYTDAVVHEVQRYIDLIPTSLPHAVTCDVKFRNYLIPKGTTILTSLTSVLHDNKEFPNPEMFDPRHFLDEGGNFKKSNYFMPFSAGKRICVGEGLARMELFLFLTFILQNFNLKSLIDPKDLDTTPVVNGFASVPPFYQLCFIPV
Sequence of CYP2D6 (P10635 whole entry): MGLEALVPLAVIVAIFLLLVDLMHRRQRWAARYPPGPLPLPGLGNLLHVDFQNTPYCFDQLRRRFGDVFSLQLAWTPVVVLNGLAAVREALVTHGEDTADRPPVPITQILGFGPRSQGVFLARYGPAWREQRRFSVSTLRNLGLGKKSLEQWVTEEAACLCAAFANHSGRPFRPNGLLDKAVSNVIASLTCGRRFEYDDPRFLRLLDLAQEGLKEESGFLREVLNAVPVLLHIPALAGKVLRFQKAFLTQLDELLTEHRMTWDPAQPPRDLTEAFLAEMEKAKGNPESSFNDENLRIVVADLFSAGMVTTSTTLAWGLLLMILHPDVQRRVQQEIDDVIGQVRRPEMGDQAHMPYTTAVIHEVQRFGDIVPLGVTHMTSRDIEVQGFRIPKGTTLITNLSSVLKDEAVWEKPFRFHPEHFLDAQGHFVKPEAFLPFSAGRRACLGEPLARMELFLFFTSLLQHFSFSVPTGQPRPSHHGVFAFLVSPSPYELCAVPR
Sequence of CYP3A4 (P08684 whole entry): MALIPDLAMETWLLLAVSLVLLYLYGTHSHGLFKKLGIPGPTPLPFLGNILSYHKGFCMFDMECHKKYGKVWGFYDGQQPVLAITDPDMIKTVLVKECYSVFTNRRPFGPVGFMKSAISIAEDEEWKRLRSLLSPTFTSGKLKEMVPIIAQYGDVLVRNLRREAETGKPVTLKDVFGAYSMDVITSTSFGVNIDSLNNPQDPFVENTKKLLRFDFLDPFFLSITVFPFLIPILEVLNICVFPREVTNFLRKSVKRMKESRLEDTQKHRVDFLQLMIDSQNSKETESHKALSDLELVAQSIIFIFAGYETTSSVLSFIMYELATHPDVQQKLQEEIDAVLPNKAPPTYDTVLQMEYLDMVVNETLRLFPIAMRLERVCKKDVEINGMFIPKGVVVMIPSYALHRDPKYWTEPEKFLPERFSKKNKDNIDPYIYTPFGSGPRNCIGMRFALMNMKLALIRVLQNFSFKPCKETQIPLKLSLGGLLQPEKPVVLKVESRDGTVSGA

CCN(CC)CC(O)COc1cc2oc3cc(OCC(O)CN(CC)CC)c(OC)c(CC=C(C)C)c3c(=O)c2c(O)c1CC=C(C)C (configuration not stated)
HC50 at 1 h [1]: 108 µM | MIC90 [2]: 6.4 µM (≈ 4.28 µg/mL)

COc1c(OCC(O)CNC(CO)(CO)CO)cc2oc3cc(OCC(O)CNC(CO)(CO)CO)c(CC=C(C)C)c(O)c3c(=O)c2c1CC=C(C)C (configuration not stated)
HC50 at 1 h [1]: 33.2 µM | MIC90 [2]: 26 µM (≈ 19.9 µg/mL)

NNC(=O)c1ccncc1 [ISONIAZID]
MIC90 [2]: 15 µM (≈ 2.06 µg/mL) | Activity [3]: 1.2

CC[C@@H](CO)NCCN[C@@H](CC)CO [ETHAMBUTOL]
MIC90 [2]: 1.25 µM (≈ 0.255 µg/mL) | Activity [4]: 113.5% | Activity [5]: 13.1% | Activity [6]: 71.3% | Activity [7]: 79.7%

CCN(CC)CCCCOc1ccc2c(=O)c3c(O)cc(OCCCCN(CC)CC)cc3oc2c1
HC50 at 1 h [1]: > 401 µM | MIC90 [2]: > 30 µM

COC(=O)C(CCCNC(=N)N)NC(=O)COc1cc2oc3cc(OCC(=O)NC(CCCNC(=N)N)C(=O)OC)c(OC)c(CC=C(C)C)c3c(=O)c2c(O)c1CC=C(C)C (configuration not stated)
HC50 at 1 h [1]: 309 µM | MIC90 [2]: > 30 µM | MIC (Staphylococcus aureus [8]): 2.5 µM (≈ 2.17 µg/mL) | MIC (Staphylococcus aureus [9]): 3.5 µM (≈ 3.03 µg/mL) | CC50 at 4 h [10]: 13.7 µM | CC50 at 4 h [11]: 13.4 µM | metabolised at 0.5 h, 1 µM [12]: 12.6% | half-life at 1 µM [13]: > 30 min | inhibition at 10 min, 10 µM (CYP3A4): 36% | inhibition at 10 min, 10 µM (CYP2D6): 11% | inhibition at 10 min, 10 µM (CYP2C19): 1%

CO[C@H]1/C=C/O[C@@]2(C)Oc3c(C)c(O)c4c(c3C2=O)C2=NC3(CCN(CC(C)C)CC3)NC2=C(NC(=O)/C(C)=C\C=C\[C@H](C)[C@H](O)[C@@H](C)[C@@H](O)[C@@H](C)[C@H](OC(C)=O)[C@@H]1C)C4=O [RIFABUTIN]
bioavailability [14]: 20%

COC(=O)C(Cc1cnc[nH]1)NC(=O)COc1cc2oc3cc(OCC(=O)NC(Cc4cnc[nH]4)C(=O)OC)c(OC)c(CC=C(C)C)c3c(=O)c2c(O)c1CC=C(C)C (configuration not stated)
HC50 at 1 h [1]: > 241 µM | MIC90 [2]: > 30 µM

CCN(CC)CCOc1cc2oc3cc(OCCN(CC)CC)c(OC)c(CC=C(C)C)c3c(=O)c2c(O)c1CC=C(C)C
HC50 at 1 h [1]: > 328 µM | MIC90 [2]: 3.2 µM (≈ 1.95 µg/mL) | CC50 at 4 h [10]: 44.1 µM | CC50 at 4 h [11]: 92.6 µM | metabolised at 0.5 h, 1 µM [12]: 82.8% | half-life at 1 µM [13]: 12 min | inhibition at 10 min, 10 µM (CYP3A4): 20% | inhibition at 10 min, 10 µM (CYP2D6): 28% | inhibition at 10 min, 10 µM (CYP2C19): 16%

CCCCN(CC)CCCCOc1cc2oc3cc(OCCCCN(CC)CCCC)c(OC)c(CC=C(C)C)c3c(=O)c2c(O)c1CC=C(C)C
HC50 at 1 h [1]: > 277 µM | MIC90 [2]: > 30 µM

CCN(CC)CCCCOc1cc2oc3cc(OCCCCN(CC)CC)c(OC)c(CCC(C)C)c3c(=O)c2c(O)c1CCC(C)C
MIC90 [2]: 6.4 µM (≈ 4.28 µg/mL)

COc1c(OCC(O)CNCCN)cc2oc3cc(OCC(O)CNCCN)c(CC=C(C)C)c(O)c3c(=O)c2c1CC=C(C)C (configuration not stated)
HC50 at 1 h [1]: 125 µM | MIC90 [2]: > 30 µM | MIC (Staphylococcus aureus [8]): 5 µM (≈ 3.21 µg/mL) | MIC (Staphylococcus aureus [9]): 10 µM (≈ 6.43 µg/mL)

CCN(CC)CCCCOc1cc2oc3cc(OCCCCN(CC)CC)c(OC)c(CC=C(C)C)c3c(=O)c2c(OCCCCN(CC)CC)c1CC=C(C)C
HC50 at 1 h [1]: > 252 µM | MIC90 [2]: > 30 µM | CC50 at 4 h [10]: 43.7 µM | CC50 at 4 h [11]: > 150 µM | metabolised at 0.5 h, 1 µM [12]: 11.6% | half-life at 1 µM [13]: > 30 min | inhibition at 10 min, 10 µM (CYP3A4): 40% | inhibition at 10 min, 10 µM (CYP2D6): 30% | inhibition at 10 min, 10 µM (CYP2C19): 10%
